{
  "source": "patent US11058756B2",
  "about": "“Compositions and methods of treating autoimmune disease by reducing enterococcus” (YALE UNIVERSITY, priority 2017, dated 2021)",
  "key": {"[1]": {"biological_target": "T1, AhR (Mus musculus, UniProt P30561)", "T1 construct": "mice were injected i.p. with 300 mg of CH223191 (a selective AhR antagonist; Sigma-Aldrich) or mock 5 days a week; from tissue; host or cells: whole animal: (NZWxBXSB)F1 hybrid mice", "T1 sequence (P30561 10-848)": "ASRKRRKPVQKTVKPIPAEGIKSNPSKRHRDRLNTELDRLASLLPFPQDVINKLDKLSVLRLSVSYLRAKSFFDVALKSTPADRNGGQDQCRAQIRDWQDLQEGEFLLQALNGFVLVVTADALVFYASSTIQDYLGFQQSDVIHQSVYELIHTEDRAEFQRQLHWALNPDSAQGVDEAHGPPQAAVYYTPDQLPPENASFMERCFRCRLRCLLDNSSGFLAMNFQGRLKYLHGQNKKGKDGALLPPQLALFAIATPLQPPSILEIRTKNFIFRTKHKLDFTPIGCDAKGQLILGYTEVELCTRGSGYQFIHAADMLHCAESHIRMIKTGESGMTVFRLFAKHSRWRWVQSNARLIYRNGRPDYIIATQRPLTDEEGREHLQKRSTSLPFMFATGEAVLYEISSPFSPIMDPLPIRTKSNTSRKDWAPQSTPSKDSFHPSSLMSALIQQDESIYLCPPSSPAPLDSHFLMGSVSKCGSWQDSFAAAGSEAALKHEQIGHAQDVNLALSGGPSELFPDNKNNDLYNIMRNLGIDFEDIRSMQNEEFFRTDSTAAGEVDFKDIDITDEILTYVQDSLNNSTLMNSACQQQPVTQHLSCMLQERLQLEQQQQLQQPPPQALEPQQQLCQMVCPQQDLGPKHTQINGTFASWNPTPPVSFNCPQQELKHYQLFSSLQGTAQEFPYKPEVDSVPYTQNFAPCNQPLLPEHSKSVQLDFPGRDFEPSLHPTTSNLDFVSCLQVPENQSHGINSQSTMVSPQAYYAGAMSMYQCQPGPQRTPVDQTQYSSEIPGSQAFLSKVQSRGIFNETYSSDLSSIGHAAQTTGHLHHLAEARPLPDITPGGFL", "assay": "AhR antagonist experiment in E. gallinarum-gavaged (NZWxBXSB)F1 mice", "format": "in vivo", "details": "4 weeks; for Th17-inducing effects of E. gallinarum (MLN Th17 cell frequency): CH223191 i.p. 300 μg/mouse/day, 5 days a week, ABX-pretreated, E. gallinarum gavaged, FIG. 20; for autoantibodies-inducing effects of E. gallinarum (serum anti-RNA and anti-dsDNA IgG): CH223191 i.p. 5 days a week, FIG. 4O-4P", "description": "(§1) Serum antibodies specific for dsDNA and b2GPI were determined using standardized ELISAs (anti-dsDNA antibody, Abcam; and, Mouse/Rat Apolipoprotein H Antibody, R&D Systems; respectively). Anti-RNA was determined by ELISA using defined positive controls (Human/Mouse RNA Polymerase II Antibody, R&D systems). Anti-ERV gp70 ICs and ERV gp70 protein were determined by OD450 signal comparisons (Evans et al., 1990, J Virol, 64, 6176-6183). For anti-dsDNA ELISAs, DNA-BIND™ (Corning) plates were coated with 100 μg/ml salmon sperm DNA (Fisher Scientific) and blocked in 0.1M PBS, 3.0% BSA, 5.0% FBS. The serum was diluted 1:1000 for the assay and incubated for 1 hour at 37° C. Wells were washed and incubated for 1 hour at 37° C. with rabbit anti-mouse IgG (Fisher Scientific) conjugated to HRP and developed with TMB substrate solution. 2M sulfuric acid (Sigma) solution was used to stop development. The concentration of anti-dsDNA was determined by reading the absorbance at 450 nm/570 nm reference.\n(§2) For anti-RNA ELISAs, DNA-BIND™ (Corning) plates were coated with […] yeast RNA (Ambion) and blocked in 0.1M PBS, 0.05% Tween-20, 5.0% FBS. The serum was diluted 1:1000 for the assay and incubated for 1 hour at 37° C. Wells were washed and incubated for 1 hour at 37° C. with rabbit anti-mouse IgG (Fisher Scientific) conjugated to HRP and developed with TMB substrate solution. 2M sulfuric acid (Sigma) solution was used to stop development. The concentration of anti-RNA IgG was determined by reading the absorbance at 450 nm/570 nm reference.\nFor direct ex vivo intracellular cytokine detection, cells isolated from small intestinal lamina propria, MLN or spleen were immediately treated with GolgiStop (BD Bioscience) and surface-stained in FACS buffer (PBS, 2% bovine serum albumin, 0.2 mg of sodium azide, 2 mM EDTA) for 30 minutes in the dark at room temperature with fluorescently conjugated antibodies specific for CD3, CD4, CD11b, CD11c, CD44, CD62L, CD19, CD45, CD45R (B220), CXCR5, GITR, IL-17, IFN-g, Ly6C, NK1.1, PDCA-1, PD-1 and PSGL-1. After staining for surface antigens, some B cells and T cells were stained for intracellular cytokines using intracellular cytokine fixation buffer (eBioscience) and fluorescently conjugated antibodies specific for IL-17, IFN-g and FoxP3 (eBioscience) for 30 minutes in the dark at room temperature. Cell viability was assessed with Zombie NIR Fixable Viability Kit (BioLegend).\n(NZWxBXSB)F1 mice were treated with broad-spectrum antibiotics (vancomycin, ampicillin, neomycin and metronidazole) from 10 weeks to 14 weeks of age. 24 hours later mice were gavaged with E. gallinarum every week for 4 weeks. […]"}, "[2]": {"tested_on": "(NZWxBXSB)F1 mice", "assay": "Oral antibiotics in drinking water: mortality, clinical outcome, proteinuria and organ histology in the autoimmune hybrid model", "format": "in vivo, mouse", "source_text": "6-week-old male (NZWxBXSB)F1 mice and C57BL/6J mice were used in this study except if noted otherwise. (NZWxBXSB)F1 were bred by mating NZW/LaJ females with BXSB/MpJ males obtained from Jackson Laboratory (Bar Harbor, Me., USA). Parental littermates of (NZWxBXSB)F1 were randomly mixed with littermates from other parental cages 21 days after birth to equilibrate the microbiomes from different cages and parental origin. All mice were maintained in a specific-pathogen-free environment. (NZWxBXSB)F1 mice were provided with water and a standard laboratory diet ad libitum (2018 Harlan Teklad, South Easton, Mass., USA). They were supplied with hardwood chips as bedding and were housed in a temperature-controlled, air-conditioned room on a 12-hr light-dark cycle. Germ-free (GF) C57BL/6 mice were kept under sterile conditions in CBC's (Class Biologically Clean, Madison, Wis., USA) Quad flexible film isolators (Softwall), exposed to a 12-hr light/dark cycle and provided standard, autoclaved tap water and mouse chow (2018S Harlan Teklad, South Easton, Mass., USA) ad libitum. To exclude a Th17 bias, a PCR for segmented filamentous bacteria (SFB) was performed on fecal DNA from all mice involving Th17 studies. Fecal SFB detection at 6-8 weeks of age that correlates with ileal SFB colonization was performed as described (Barman et al., 2008, Infect Immun, 76, 907-915; Kriegel et al., 2011, Proc Natl Acad Sci USA, 108, 11548-11553). All Th17 data was derived from SFB-negative animals.\n(§3) Mice were cohoused for 3 to 4 weeks before antibiotic treatment to allow for equilibration of the microbiota. Single antibiotic or broad-spectrum antibiotic administration consisted of metronidazole (1 g/liter; Fisher Scientific), neomycin (1 g/liter; Fisher Scientific), ampicillin (1 g/liter; Sigma) and vancomycin (0.5 g/liter; Acros Organics) in the drinking water for up to 22 weeks or a targeted regiment for 2 weeks and then replaced with regular water for the duration of the experiment. For broad-spectrum antibiotic experiments (vancomycin, ampicillin, metronidazole, and neomycin combined), sweetener (Equal, 4 g/L) was added to both the antibiotics and control water due to the metallic taste of metronidazole. Twenty-four hours after cessation of antibiotic water, mice were administered 1×10^6 CFUs of vancomycin-resistant E. gallinarum via oral gavage, isolated from liver tissue of a vancomycin-treated mouse that continued to show signs of autoimmune disease (high-level resistance was confirmed by vanC gene PCR). E. gallinarum was grown at 37° C. in Gifu Anaerobic Broth (HIMEDIA Laboratories) to early stationary phase under anaerobic conditions (82% N2, 15% CO2, 3% H2 by volume) in an anaerobic chamber and diluted in PBS to 10^7 CFUs.\nSamples were obtained at autopsy and fixed in 10% neutral formalin, and histological sections were stained with hematoxylin and eosin (H&E) and scored in a blinded fashion. Glomerulonephritis was scored on a scale of 0-4 based on the intensity and extent of histopathological changes (Klopfleisch, 2013, BMC Vet Res, 9, 123). A grade of 0 was given to kidneys without glomerular lesions; grade 1 consisted of minimal thickening of the mesangium; grade 2 contained noticeable increases in both mesangial and glomerular cellularity; grade 3 was characterized by the preceding conditions with superimposed inflammatory exudates and capsular adhesions; and grade 4 consisted of obliterated glomerular architecture in greater than 70% of glomeruli. […]"}, "[3]": {"tested_on": "(NZWxBXSB)F1 mice", "assay": "Serum ELISAs for anti-dsDNA, anti-RNA, anti-β2GPI IgG, ERV gp70 protein and anti-ERV gp70 immune complexes", "format": "in vivo, mouse", "details": "single antibiotic in drinking water; 16 weeks of age; FIG. 1B-1C", "source_text": "as §3, §1, §2\nFor anti-b2GPI ELISAs, Corning® 96-well EIA/RIA easy Wash™ clear flat-bottom polystyrene high-bind microplates were coated with […] recombinant b2GPI/ApoH (R&D Systems) and blocked in Pierce Protein-Free (PBS) Blocking Buffer (Thermo Scientific). The serum was diluted 1:100 for the assay and incubated at room temperature for 2 hours on a shaker. Wells were washed and incubated while shaking for 30 minutes at room temperature with goat anti-mouse IgG (Fisher Scientific) conjugated to HRP and developed with TMB substrate solution. 2M sulfuric acid (Sigma) solution was used to stop development. The concentration of anti-b2GPI was determined by reading the absorbance at 450 nm/650 nm reference. […]"}, "[4]": {"tested_on": "E. gallinarum", "assay": "Assessment of bacterial translocation and tissue burden (anaerobic tissue cultures, CFU)", "format": "in vivo, mouse", "details": "(NZWxBXSB)F1 mice, antibiotics in drinking water; 16-18 weeks of age; FIG. 1K-1N", "text": "Mice were cohoused for 3 to 4 weeks before antibiotic treatment to allow for equilibration of the microbiota. Single antibiotic or broad-spectrum antibiotic administration consisted of metronidazole (1 g/liter; Fisher Scientific), neomycin (1 g/liter; Fisher Scientific), ampicillin (1 g/liter; Sigma) and vancomycin (0.5 g/liter; Acros Organics) in the drinking water for up to 22 weeks or a targeted regiment for 2 weeks and then replaced with regular water for the duration of the experiment. For broad-spectrum antibiotic experiments (vancomycin, ampicillin, metronidazole, and neomycin combined), sweetener (Equal, 4 g/L) was added to both the antibiotics and control water due to the metallic taste of metronidazole. […] E. gallinarum was grown at 37° C. in Gifu Anaerobic Broth (HIMEDIA Laboratories) to early stationary phase under anaerobic conditions (82% N2, 15% CO2, 3% H2 by volume) in an anaerobic chamber and diluted in PBS to 10^7 CFUs.\n14-, 16- and 18-week-old mice underwent sterile laparotomy and nose, mouth, small intestine (luminal and adherent fractions), mesenteric veins, mesenteric lymph nodes (MLN), liver and spleen were aseptically collected in BBL Mycoflask Thioglycollate (Fluid) Prepared Media (BD Diagnostic Systems) and incubated for 72 hours in anaerobic conditions at 37° C. Gifu Media Agar plates were streaked with the content from the BBL Mycoflask Thioglycollate and incubated for 48 hours in an anaerobic chamber at 37° C. Colony Formation Units (CFU) were counted and concentration determined per milligram of tissue. Single colonies were grown in Gifu anaerobic media for 48 hours in an anaerobic chamber at 37° C. and aliquots from each sample were collected and centrifuge for 10 minutes at 10000×g. DNA was extracted from bacterial pellets using DNeasy Blood and Tissue kit (Qiagen) and submitted to PCR amplification of the 16S region and Sanger sequencing. In addition, purified DNA was used for eubacterial, Enterococcus genus and Enterococcus gallinarum PCR assays."}, "[5]": {"details": "listed as AHR-selective antagonist"}},
  "data": [
    {"compound": "Cc1ccccc1N=Nc1ccc(NC(=O)c2ccnn2C)c(C)c1", "note": "[CH223191]", "values": [
      {"measurement": "Th17-inducing effects of E. gallinarum (MLN Th17 cell frequency)", "setting": "[1]", "result": "reverses"},
      {"measurement": "Th17-inducing effects of E. gallinarum (MLN Th17 cell frequency)", "setting": "[1]; [5]", "result": "abrogated"},
      {"measurement": "autoantibodies-inducing effects of E. gallinarum (serum anti-RNA and anti-dsDNA IgG)", "setting": "[1]", "result": "reverses"},
      {"measurement": "autoantibodies-inducing effects of E. gallinarum (serum anti-RNA and anti-dsDNA IgG)", "setting": "[1]; [5]", "result": "abrogated"}
    ]},
    {"compound": "CC1(C)S[C@@H]2[C@H](NC(=O)[C@H](N)c3ccccc3)C(=O)N2[C@H]1C(=O)O", "note": "[ampicillin]", "values": [
      {"measurement": "Mortality", "setting": "[2]; single antibiotic in drinking water from 6 weeks of age, followed for 30 weeks or until death, FIG. 1A", "result": "prevented"},
      {"measurement": "autoimmune manifestations (proteinuria, organ histology scores)", "setting": "[2]; single antibiotic in drinking water, FIG. 1D-1I", "result": "prevented"},
      {"measurement": "lupus-related autoantibodies (serum anti-dsDNA and anti-RNA IgG)", "setting": "[3]", "result": "prevented"}
    ]},
    {"compound": "neomycin", "values": [
      {"measurement": "clinical outcomes", "setting": "[2]; neomycin 1.0 g/L in drinking water", "result": "did not alter"},
      {"measurement": "Translocation (bacterial growth in mesenteric veins, MLN, liver, spleen)", "setting": "[4]", "result": "only to a lesser degree"}
    ]}
  ]
}
